Data on 4 molecules can be found in US6191152A, “2-(1,2,4-triazole-1-yl)-1,3,4-thiadiazole derivatives having an effect on the C.N.S. and the heart” (EGIS Gyogyszergyar Rt., priority 1997, dated 2001).

Molecules are shown by their SMILES. A value given as a limit tells only on which side of the number the result lay.

In one assay the target is T1, 5-HT2A receptor (Rattus norvegicus, UniProt P14842).
T1 construct: rat brain frontal cortex membrane preparation; from tissue; host or cells: rat brain frontal cortex membranes
T1 sequence (P14842 whole entry): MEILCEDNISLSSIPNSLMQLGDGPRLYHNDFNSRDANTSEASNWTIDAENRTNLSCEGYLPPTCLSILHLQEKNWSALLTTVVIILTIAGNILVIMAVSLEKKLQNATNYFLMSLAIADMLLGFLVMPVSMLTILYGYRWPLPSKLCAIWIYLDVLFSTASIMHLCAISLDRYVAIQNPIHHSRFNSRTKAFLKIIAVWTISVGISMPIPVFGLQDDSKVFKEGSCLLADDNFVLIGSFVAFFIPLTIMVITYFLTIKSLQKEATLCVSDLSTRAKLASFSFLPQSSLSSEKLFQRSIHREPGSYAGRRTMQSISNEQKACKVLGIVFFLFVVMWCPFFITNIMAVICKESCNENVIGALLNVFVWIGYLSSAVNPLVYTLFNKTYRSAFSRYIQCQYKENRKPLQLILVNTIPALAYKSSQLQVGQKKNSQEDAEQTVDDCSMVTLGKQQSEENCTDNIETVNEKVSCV
Nature of the assay: 5-HT2A receptor binding, rat brain frontal cortex membrane, tritiated ketanserine. As to conditions: read-out: Inhibition of receptor binding of the radioactive ligand (Ki), 5-HT2A. How it is done:
(§1) 4) 5-HT2A and 5-HT2C Receptor Binding Studies
(§2) 5-HT2A and 5-HT2C receptor binding was measured according to the methods described by Leysen et al. /Mol. Pharmacol., 21, 301 (1981)/and Pazos et al. /Eur. J. Pharmacol., 106, 539 (1985)/, respectively. 5-HT2A receptor binding was measured in rat brain frontal cortex membrane preparation using tritiated ketanserine /3-/2-(4-fluorobenzoyl)-1-piperidinyl/ethyl-2,4-(1H,3H)-quinazolinedione/ (60-90 Ci/mmole) as ligand. 5-HT2C receptor binding was measured in pig brain choroid plexus membrane-preparation using tritiated mesulergine /N'-/(8)-1,6-dimethylergoline-8-yl/-N,N-dimethylsulfamide (70-85 Ci/mmole) as the ligand. Non-specific binding to 5-HT2A and 5-HT2C receptors were determined in the presence of 10 micromoles of cyproheptadine /4-(5H-dibenzo/a,d/cycloheptene-5-ylidene)-1-methylpiperidine/and 1 micromole of mianserine /1,2,3,4,10,14b-hexahydro-2-methyldibenzo/c,f/pyrazino/1,2-a/azepine/, respectively. The final incubation volumes were 250 and 1000 microlitres. Samples were incubated for 15 and 30 minutes at 37° C. Incubation was stopped by adding 9 ml of ice-cold 50 mr- tris(hydroxymethyl)aminomethane hydrochloride (pH=7.7) to the reaction mixture. The samples were rapidly filtered through whatman GF/B glass fiber filters using reduced pressure. […] Radioactivity of the filters was determined by a scintillation spectrometer.

Another assay concerns the target T2, 5-HT2C receptor (Sus scrofa, UniProt K7GSR7).
T2 construct: pig brain choroid plexus membrane-preparation; from tissue; host or cells: pig brain choroid plexus membranes
T2 sequence (K7GSR7 1-457): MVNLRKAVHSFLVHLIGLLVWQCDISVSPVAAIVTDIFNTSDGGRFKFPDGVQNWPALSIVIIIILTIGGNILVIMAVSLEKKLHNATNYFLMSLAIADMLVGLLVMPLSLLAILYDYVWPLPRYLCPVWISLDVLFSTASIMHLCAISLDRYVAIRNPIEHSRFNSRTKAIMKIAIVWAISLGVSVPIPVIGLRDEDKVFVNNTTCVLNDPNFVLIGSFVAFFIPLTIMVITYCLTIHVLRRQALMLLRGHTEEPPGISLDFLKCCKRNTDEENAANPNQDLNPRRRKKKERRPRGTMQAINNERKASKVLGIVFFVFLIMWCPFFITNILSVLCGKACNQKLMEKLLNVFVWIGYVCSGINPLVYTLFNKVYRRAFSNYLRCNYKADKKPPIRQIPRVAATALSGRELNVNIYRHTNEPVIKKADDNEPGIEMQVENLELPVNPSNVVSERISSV
Kind of assay: 5-HT2C receptor binding, pig brain choroid plexus membrane, tritiated mesulergine. As to conditions: read-out: Inhibition of receptor binding of the radioactive ligand (Ki), 5-HT2C. The method, then: as §1, §2

The test system of assay [1] is isolated rat thoracic aorta. Kind of assay: Vascular relaxing effect in isolated rat thoracic aorta contracted with 40 mM potassium chloride (diltiazem). On the set-up: species or system rat (male SPRD). As to conditions: 40 mM KCl contracted strips, 37° C., read-out: IC50 (vascular relaxation in isolated rat thoracic aorta). How it is done:
Experiments were performed in thoracic aortas obtained from male SPRD rats weighing 250 to 300 g. Thoracic aortas excised from rats killed by decapitation and ensanguination were cleaned of fat and connective tissue, then were immediately placed in carbogenized TYRODE solution. The composition of the normal TYRODE solution was the following (in mM): NaCl 114.7, KCl 3.7, CaCl2 3.6, MgCl2 0.49, NaHCO3 19.9, NaH2 PO4 0.32, glucose 5.1.
Two mm wide and 20 to 25 mm long strips were cut from the aortas along a helical line at 45° angle. Aortic strips were mounted vertically between two cotton threads in 10 ml organ chambers, the lower threads were attached to the organ chambers and the upper threads were connected to isometric force transducers. The strips were incubated under 1 g resting tension at 37° C. for 120 minutes, then resting vascular tone was recorded. […]
When stable vascular tone developed, increasing doses of the test substance were added to the organ bath. The effects of each test substance were measured at least in 3 tissue preparations obtained from different animals. Decreases in vascular tension caused by the test substances were expressed as percentage changes and IC50 for each tissue preparation was determined by sigmoid (in few casses linear) curve fitting. […]

The subject of the next assay is human beings. The settings on record: Ceulemans et al.; cited from earlier work.

`CN(C)CCCOc1ccccc1-c1nnc(-n2nc(N3CCCC3)nc2N)s1` [Example 44, 2-(5-Amino-3-pyrrolidino-1H-1,2,4-triazole-1-yl)-5-/ 2-(3-dimethylaminopropoxy)phenyl/-1,3,4-thiadiazole]: the Ki – broadly, the dissociation constant of the complex between target and ligand, obtained from inhibition or displacement – on 5-HT2A receptor is over 100 nM; at 5-HT2C receptor it was 50 nM.

With `COc1ccc(CCN(C)CCCOc2ccccc2-c2nnc(-n3nc(SC)nc3N)s2)cc1OC` [Example 98, 2-(5-Amino-3-methylthio-1H-1,2,4-triazole-1-yl)-5-{2-[3-methyl-3-/ 2-(3,4-dimethoxyphenylethyl)amino/propoxy]phenyl}-1,3,4-thiadiazole], the Ki at 5-HT2A receptor was over 1000 nM; on 5-HT2C receptor, 24 nM.

Turning to `COc1ccc([C@@H]2Sc3ccccc3N(CCN(C)C)C(=O)[C@@H]2OC(C)=O)cc1` [diltiazem, (2S)-cis-3-acetyloxy-5-(2-dimethylamino-ethyl)-2,3-dihydro-2-(4-methoxyphenyl)-1,5-benzothiazepine-4(5H)-one], the IC50 (commonly the concentration that gives 50% inhibition) in assay [1] was found to be 150 nM.

`Cc1nc2sccn2c(=O)c1CCN1CCC(=C(c2ccc(F)cc2)c2ccc(F)cc2)CC1` [ritanserin, 6-[2-/4-bis(4-fluorophenyl)-methylene/ -1-piperidinylethyl]-7-methyl-5H-thiazolo/3,2-a/pyrimidine-5-one]: in the assay with human beings, the “treatment of different forms of human anxiety” value was “proved to be effective for the treatment of different forms of human anxiety”.
